US20240287614A1, “RECIPROCAL MICRORNA-MRNA PAIRINGS AS BIOMARKERS AND THERAPEUTIC TARGETS IN CANCER” (UNIVERSITY OF MARYLAND, EASTERN SHORE, priority 2023, published 2024)

Assays:
mTOR and pmTOR [1] = assay: Immunofluorescence of mTOR and pmTOR in prostate cancer cell lines transfected with NS or miR-99b-5p mimic; format: cell-based, human; details: vs NS
From the text: (§1) The human cell lines used in the study included: 22Rv1, LNCaP, PC-3, RC77 T/E and MDA PCa 2b (prostate cancer cell lines), MDA MB 231 and MCF-7 (breast cancer cell lines), HT-29 and SW620 (colon cancer cell lines), A549 and H1299 (lung cancer cell lines). RWPE-1, HMEC, FHC, and BEAS-2B were used as normal control cell lines for prostate, breast, colon, and lung, respectively. Note that 22Rv1 is a castration-resistant […] prostate cancer cell line, while LNCaP and PC-3 were derived from lymph node and bone metastasis of […] prostate cancer patients, respectively. RC77 T/E was derived from a primary prostate cancer patient, and MDA PCa 2b was derived from bone metastasis of an prostate cancer patient. The cell lines described were used as in vitro cell models to evaluate the functional roles of miR-99b-5p/MTOR pairing in the […] prostate cancer, African American prostate cancer and solid tumors in general. The cells were grown in specific cell culture media described as follows: 22Rv1, LNCaP, MCF-7 and H1299 were cultured in RPMI-1640 with 10% fetal bovine serum (FBS), PC-3, A549 and FHC were cultured in DMEM with 10% FBS, RC77 T/E was cultured in Keratinocyte SFM with human recombinant epidermal growth factor (EGF) and bovine pituitary extract (BPE), MDA PCa 2b were cultured in BRFF-HPC1 with 20% FBS, HT-29 was cultured in McCory's with 10% FBS, SW620 and MDA MB 231 were cultured in L-15 with 10% FBS, HMEC was cultured in mammary epithelial cell basal medium with supplements, and BEAS-2B was cultured in BEBM base medium with BEBM supplement kit. Cells were maintained at 37° C. in a 5% CO2 incubator.
(§2) The 22Rv1, LNCaP, PC-3, MDA PCa 2b, MCF7, H1299, A549, HT-29, SW620, MDA MB-231, HMEC and BEAS-2B cells were seeded at a density of 3×10^5 cells/well in 6-well plates. RC77 T/E cells were seeded at a density of 5×10^5 cells/well in 6-well plates. The cells were grown for 24 h and then transfected with nonsense/scrambled RNA (NS) and miR-99b-5p mimic (Ambion) using DharmaFECT4 transfection reagent (Dharmacon). After 24 h, fresh media were applied to replace the transfection reagent-containing media, then the cells were incubated for an additional 24 h.
In this process, 4×10^4 cells were seeded on cover slip and allowed to adhere for 24 h in 5% CO2 incubator at 37° C. All the cells were subjected to immunofluorescence assays 48 h following transfection. Briefly, cells were washed with 1×PBS, fixed in 4% paraformaldehyde, and permeabilized with 0.1% Triton X-100. Cells were then blocked for 1 h with 2% BSA in 1×PBS. […] All labeled and/or prepared cells mounted on glass slides and were visualized by fluorescence microscopy (Olympus). […]

mTOR and pmTOR [2] = assay: Western blot of mTOR and pmTOR in cytoplasmic and nuclear fractions of prostate cancer cell lines; format: cell-based, human
From the text: as §1, §2
The total proteins were extracted using M-PER extraction reagent with protease and phosphatase inhibitor cocktail (Thermo Fisher Scientific) according to manufacturer's protocol. Cytoplasm and nuclear proteins were extracted using Subcellular Protein Fractionation kit (Thermo Fisher Scientific) according to the manufacturer's protocol. Equal amounts of proteins were used based on the quantification using BCA assay kit (Thermo Fisher Scientific), and the samples were separated by electrophoresis using NuPAGE 4-12% or 8% Bis-Tris gels (Invitrogen). The gels were transferred to PVDF membranes (Bio-Rad) then the PVDF membranes were incubated with SuperBlock blocking buffer (Thermo Fisher Scientific). After 1 h, the PVDF membranes were incubated with primary antibodies overnight at 4° C., washed 3 times with 1×TBST, and then incubated with secondary antibody for 1 h at room temperature, then washed 5 times with 1×TBST. The results were analyzed with SuperSignal ECL substrates (Thermo Fisher Scientific) and a ChemiDoc XRS system (Bio-Rad). The primary and secondary antibodies used in the study were mTOR, pmTOR, AR, GAPDH, Lamin B1, β-actin, and anti-rabbit IgG-HRP antibodies from Cell Signaling Technology.

mTOR and pmTOR [3] = assay: Western blot of mTOR and pmTOR in cytoplasmic and nuclear fractions of colon, breast and lung cancer cells; format: cell-based, human; details: breast, lung cancer cells
From the text: as §1, §2
The total proteins were extracted using M-PER extraction reagent with protease and phosphatase inhibitor cocktail (Thermo Fisher Scientific) according to manufacturer's protocol. […] Equal amounts of proteins were used based on the quantification using BCA assay kit (Thermo Fisher Scientific), and the samples were separated by electrophoresis using NuPAGE 4-12% or 8% Bis-Tris gels (Invitrogen). […] The results were analyzed with SuperSignal ECL substrates (Thermo Fisher Scientific) and a ChemiDoc XRS system (Bio-Rad). […]

[4] = system: HT-29, SW620, MDA MB 231, MCF7, A549, and H1299; assay: Caspase 3/7 activity-based apoptosis assay, colon, breast and lung cancer cell lines; parameters: species or system human
Procedure: HT-29, SW620, MDA MB 231, MCF7, A549, and H1299 were seeded at a density of 3×10^4 cells/well in 96-well plates. The cells were grown overnight and then followed by transfections. After 24 h, fresh media were applied to replace the transfection reagent-containing media with […] of docetaxel or vehicle, then the cells were incubated for an additional 24 h. The Apo-ONE Caspase-3/7 Assay Kit (Promega Corporation) was used to measure apoptosis according to the protocol described by the manufacturer. Then, 100 μL of homogeneous Caspase-3/7 reagent was added to each well and the plate incubated at room temperature for 30 min to 2 h. Fluorescence was detected for measuring (at wavelengths of 499/521 nm excitation/emission) the apoptosis state (Caspase 3/7 activity) using Biotek Synergy HT Microplate Reader (BioTek).

[5] = 22Rv1, LNCaP, PC-3, RC77 T/E, MDA PCa 2b, 48 h following transfection
[6] = all European American and African American prostate cancer cell lines
[7] = all European American and African American prostate cancer cell lines, 48 h transfection, vs NS
[8] = metastatic prostate cancer cell line MDA PCa 2b

miR-99b-5p mimic: miRNA mimic of miR-99b-5p (SEQ ID NO: 2, CACCCGUAGAACCGACCUUGCG), purchased from Ambion (listed as RNA, chemistry not given here; listed as Homo sapiens)
pmTOR signals (immunofluorescence) (mTOR and pmTOR [1]; [5]): generalized reduction
total mTOR signals (immunofluorescence) (mTOR and pmTOR [1]; [5]): generalized reduction
cytoplasmic pmTOR signals (immunofluorescence quantification) (mTOR and pmTOR [1]; [6]): increased
nuclear pmTOR signals (immunofluorescence quantification) (mTOR and pmTOR [1]; [6]): reduced significantly
mTOR in nuclear fractions (Western blot) (mTOR and pmTOR [2]; [7]): moderate to significant reduction
pmTOR in nuclear fractions (Western blot) (mTOR and pmTOR [2]; [7]): moderate to significant reduction
cytoplasmic mTOR (Western blot) (mTOR and pmTOR [2]; all the prostate cancer cell lines, vs NS): slight to no reduction
nuclear mTOR (Western blot) (mTOR and pmTOR [2]; [8]): significant decrease
nuclear pmTOR (Western blot) (mTOR and pmTOR [2]; [8]): significant decrease
nuclear mTOR expression (Western blot) (mTOR and pmTOR [3]; miR-99b-5p vs NS transfected): significant decrease
nuclear pmTOR expression (Western blot) (mTOR and pmTOR [3]; miR-99b-5p vs NS transfected): significant decrease
total mTOR (combined cytoplasmic and nuclear mTOR, Western blot) (mTOR and pmTOR [3]; miR-99b-5p vs NS transfected): generalized reduction
cytoplasmic mTOR (Western blot) (mTOR and pmTOR [3]; upon miR-99b-5p transfection): slight to no decrease
cell apoptosis (caspase 3/7 activity) in the presence of docetaxel ([4]; HT-29, SW620, MCF-7, A549, H1299, 11 mM of docetaxel, 24 h): moderate to significant cell apoptosis
apoptosis (caspase 3/7 activity), single agent ([4]; colon, breast, lung cancer cells, without docetaxel (vehicle)): not sufficient to initiate significant apoptosis
